Measurements: patent US20190209539A1, “THIOHYDANTOIN ANDROGEN RECEPTOR ANTAGONISTS FOR THE TREATMENT OF CANCER” (Janssen Pharmaceutica NV, priority 2016, published 2019)
Positions count from the first letter of the chain named.

Assays:
[1] = target: T1, wild-type Androgen Receptor (AR-wt) (Homo sapiens, UniProt P10275); experiment: LNCaP-AR-wt AG: ARE luciferase reporter assay, agonist mode; assay type: cell-based; conditions: maximum % stimulation (agonist response), % of 1 μM R-1881 max
T1 construct: expressed in transfected cells; host or cells: LNCaP AR (cs) cells with ARE firefly luciferase lentiviral construct
T1 sequence (P10275 1-920): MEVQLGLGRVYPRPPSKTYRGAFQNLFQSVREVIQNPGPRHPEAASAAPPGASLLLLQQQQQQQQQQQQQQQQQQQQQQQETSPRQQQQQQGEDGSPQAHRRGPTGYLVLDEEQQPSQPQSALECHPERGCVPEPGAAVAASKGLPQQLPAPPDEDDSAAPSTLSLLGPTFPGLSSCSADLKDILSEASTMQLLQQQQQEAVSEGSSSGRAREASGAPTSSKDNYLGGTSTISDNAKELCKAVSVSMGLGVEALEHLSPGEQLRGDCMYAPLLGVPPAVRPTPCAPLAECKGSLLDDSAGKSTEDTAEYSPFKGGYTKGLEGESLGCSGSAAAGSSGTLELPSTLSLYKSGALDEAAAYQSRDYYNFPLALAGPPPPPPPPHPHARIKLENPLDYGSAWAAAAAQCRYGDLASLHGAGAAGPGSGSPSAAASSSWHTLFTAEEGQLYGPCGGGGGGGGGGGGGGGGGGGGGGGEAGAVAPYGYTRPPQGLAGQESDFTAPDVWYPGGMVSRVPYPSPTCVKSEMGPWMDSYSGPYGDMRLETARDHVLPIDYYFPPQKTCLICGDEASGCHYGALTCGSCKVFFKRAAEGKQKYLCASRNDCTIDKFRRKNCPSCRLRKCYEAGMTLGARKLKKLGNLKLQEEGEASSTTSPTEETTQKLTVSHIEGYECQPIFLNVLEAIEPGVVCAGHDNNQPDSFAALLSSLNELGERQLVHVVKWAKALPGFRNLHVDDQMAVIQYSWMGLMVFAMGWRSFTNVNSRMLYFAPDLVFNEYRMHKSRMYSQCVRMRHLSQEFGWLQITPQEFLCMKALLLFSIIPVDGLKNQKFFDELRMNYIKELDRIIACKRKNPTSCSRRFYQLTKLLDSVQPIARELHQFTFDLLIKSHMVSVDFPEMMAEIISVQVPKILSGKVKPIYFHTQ
Description: (§1) A stable pooled-population cell line was generated using puromycin (Life Technologies) selection at 1:10,000 v/v. The protocol below was used for both cell lines and for testing of the compounds of Formula (I) of the present invention.
(§2) LNCaP cells were grown to about 80% confluence, media removed and cells rinsed in Hank's balanced salt solution prior to separation from the plate with 0.05% Trypsin EDTA. Cells were lifted and trypsin negated in complete CSS (charcoal stripped serum) culture media. […] Agonist challenge was at 400 pM for WT assay and 600 pM for F876L assay. Plates containing cells and compounds herein were incubated for a further 20-24 hours at 37° C., 5% CO2 before addition of 40 μL/well of Steady-Glo Luciferase Assay System Reagent (Promega# E2520). After 1 h, plates were read for luminescence on a BMG Pherastar.
(§3) EC/IC50 calculations were achieved utilizing calculated RLU data and data fitting macros. Data were fit using least-squares methods to the following formula: […]
(§4) As used herein: pIC50 is defined as—Log10(IC50 expressed in [Molar]). pEC50 is defined as—Log10(EC50 expressed in [Molar]). […] LNCaP-AR-wt ANT refers to the reporter assay using LNCaP cells stably transfected with the Androgen Response Element Firefly Luciferase lentiviral construct and wild-type Androgen Receptor (AR-wt) in Antagonist mode. LNCaP-AR-wt AG refers to the reporter assay using LNCaP cells stably transfected with the Androgen Response Element Firefly Luciferase lentiviral construct and wild-type Androgen Receptor (AR-wt) in Agonist mode. LNCaP-AR-F876L ANT refers to the reporter assay using LNCaP cells stably transfected with the Androgen Response Element Firefly Luciferase lentiviral construct and F876L mutant Androgen Receptor (AR-F876L) in Antagonist mode. LNCaP-AR-F876L AG refers to the reporter assay using LNCaP cells stably transfected with the Androgen Response Element Firefly Luciferase lentiviral construct and F876L mutant Androgen Receptor (AR-F876L) in Agonist mode.

[2] = target: T2, F876L mutant Androgen Receptor (AR-F876L) (Homo sapiens, UniProt P10275, F877L); experiment: LNCaP-AR-F876L AG: ARE luciferase reporter assay, agonist mode; assay type: cell-based; conditions: maximum % stimulation (agonist response), % of 1 μM R-1881 max
T2 construct: expressed in transfected cells; host or cells: LNCaP F876L cells with ARE firefly luciferase lentiviral construct
T2 sequence (P10275 1-920 F877L): T1 sequence (P10275 1-920) with F877L
Description: as §1, §2, §3, §4

In the case of Cc1cc(N2C(=O)C3(CCC3)N(c3ccc(C(=O)NC4CCOCC4)c(F)c3)C2=S)cnc1C#N [Cpd 2, 4-[6-(6-cyano-5-methyl-3-pyridyl)-5-oxo-7-thioxo-6,8-diazaspiro[3.4]octan-8-yl]-2-fluoro-N-tetrahydropyran-4-yl-benzamide], the “LNCaP-AR-wt AG MAX % Stim” value [1] was 0.8% and the “LNCaP-AR-F876L AG MAX % Stim” value [2] was −0.4%.
In the case of N#Cc1ncc(N2C(=O)C3(CCC3)N(c3ccc4ccncc4c3)C2=S)cc1C(F)(F)F [Cpd 7, 5-[8-(7-isoquinolyl)-5-oxo-7-thioxo-6,8-diazaspiro[3.4]octan-6-yl]-3-(trifluoromethyl)pyridine-2-carbonitrile], the “LNCaP-AR-wt AG MAX % Stim” value [1] was −0.2% and the “LNCaP-AR-F876L AG MAX % Stim” value [2] was 0.0%.
In the case of N#Cc1ncc(N2C(=O)C3(CCC3)N(c3cccnc3)C2=S)cc1C(F)(F)F [Cpd 9, 5-[5-oxo-8-(3-pyridyl)-7-thioxo-6,8-diazaspiro[3.4]octan-6-yl]-3-(trifluoromethyl)pyridine-2-carbonitrile], the “LNCaP-AR-wt AG MAX % Stim” value [1] was −0.2% and the “LNCaP-AR-F876L AG MAX % Stim” value [2] was 0.0%.
CNC(=O)c1ccc(N2C(=S)N(c3cnc(C#N)c(C)c3)C(=O)C2(C)C)cc1F [Cpd 12, 4-[3-(6-cyano-5-methyl-3-pyridyl)-5,5-dimethyl-4-oxo-2-thioxo-imidazolidin-1-yl]-2-fluoro-N-methyl-benzamide] was tested, and the “LNCaP-AR-wt AG MAX % Stim” value [1] was 0.9% and the “LNCaP-AR-F876L AG MAX % Stim” value [2] was −0.3%.
CC(C)(O)CNC(=O)c1ccc(N2C(=S)N(c3cnc(C#N)c(C(F)(F)F)c3)C(=O)C23CCC3)cc1F [Cpd 17, 4-[6-[6-cyano-5-(trifluoromethyl)-3-pyridyl]-5-oxo-7-thioxo-6,8-diazaspiro[3.4]octan-8-yl]-2-fluoro-N-(2-hydroxy-2-methyl-propyl)benzamide] was tested, and the “LNCaP-AR-wt AG MAX % Stim” value [1] was −0.1% and the “LNCaP-AR-F876L AG MAX % Stim” value [2] was 0.1%.
In the case of N#Cc1ncc(N2C(=O)C3(CCC3)N(c3ccc4ccccc4c3)C2=S)cc1C(F)(F)F [Cpd 18, 5-[8-(2-naphthyl)-5-oxo-7-thioxo-6,8-diazaspiro[3.4]octan-6-yl]-3-(trifluoromethyl)pyridine-2-carbonitrile], the “LNCaP-AR-wt AG MAX % Stim” value [1] was −0.2% and the “LNCaP-AR-F876L AG MAX % Stim” value [2] was 0.0%.
CC(C)CCNC(=O)c1ccc(N2C(=S)N(c3cnc(C#N)c(C(F)(F)F)c3)C(=O)C23CCC3)cc1F [Cpd 27, 4-[6-[6-cyano-5-(trifluoromethyl)-3-pyridyl]-5-oxo-7-thioxo-6,8-diazaspiro[3.4]octan-8-yl]-2-fluoro-N-isopentyl-benzamide] was tested, and the “LNCaP-AR-wt AG MAX % Stim” value [1] was 0.4% and the “LNCaP-AR-F876L AG MAX % Stim” value [2] was 0.2%.
For CN1CCC(Oc2ccc(N3C(=S)N(c4cnc(C#N)c(C(F)(F)F)c4)C(=O)C34CCC4)cc2F)CC1 [Cpd 28, 5-[8-[3-fluoro-4-[(1-methyl-4-piperidyl)oxy]phenyl]-5-oxo-7-thioxo-6,8-diazaspiro[3.4]octan-6-yl]-3-(trifluoromethyl)pyridine-2-carbonitrile], the “LNCaP-AR-wt AG MAX % Stim” value [1] was −0.1% and the “LNCaP-AR-F876L AG MAX % Stim” value [2] was 0.0%.
For N#Cc1ncc(N2C(=O)C3(CCC3)N(c3ccc(C(=O)NCc4ccccc4Cl)c(F)c3)C2=S)cc1C(F)(F)F [Cpd 31, N-[(2-chlorophenyl)methyl]-4-[6-[6-cyano-5-(trifluoromethyl)-3-pyridyl]-5-oxo-7-thioxo-6,8-diazaspiro[3.4]octan-8-yl]-2-fluoro-benzamide], the “LNCaP-AR-wt AG MAX % Stim” value [1] was 0.2% and the “LNCaP-AR-F876L AG MAX % Stim” value [2] was 0.3%.
N#Cc1ncc(N2C(=O)C3(CCC3)N(c3cccc4ccccc34)C2=S)cc1C(F)(F)F [Cpd 34, 5-[8-(1-naphthyl)-5-oxo-7-thioxo-6,8-diazaspiro[3.4]octan-6-yl]-3-(trifluoromethyl)pyridine-2-carbonitrile] was tested, and the “LNCaP-AR-wt AG MAX % Stim” value [1] was −0.1% and the “LNCaP-AR-F876L AG MAX % Stim” value [2] was 0.2%.
N#Cc1ncc(N2C(=O)C3(CCC3)N(c3ccc(C(=O)NCc4ccccc4)c(F)c3)C2=S)cc1C(F)(F)F [Cpd 36, N-benzyl-4-[6-[6-cyano-5-(trifluoromethyl)-3-pyridyl]-5-oxo-7-thioxo-6,8-diazaspiro[3.4]octan-8-yl]-2-fluoro-benzamide] was tested, and the “LNCaP-AR-wt AG MAX % Stim” value [1] was 0.9% and the “LNCaP-AR-F876L AG MAX % Stim” value [2] was 0.3%.
In the case of N#Cc1ncc(N2C(=O)C3(CCC3)N(c3ccc(C(=O)NCc4ccccn4)c(F)c3)C2=S)cc1C(F)(F)F [Cpd 44, 4-[6-[6-cyano-5-(trifluoromethyl)-3-pyridyl]-5-oxo-7-thioxo-6,8-diazaspiro[3.4]octan-8-yl]-2-fluoro-N-(2-pyridylmethyl)benzamide], the “LNCaP-AR-wt AG MAX % Stim” value [1] was −0.2% and the “LNCaP-AR-F876L AG MAX % Stim” value [2] was 0.0%.
With COCCNC(=O)c1ccc(N2C(=S)N(c3cnc(C#N)c(C(F)(F)F)c3)C(=O)C23CCC3)cc1F [Cpd 46, 4-[6-[6-cyano-5-(trifluoromethyl)-3-pyridyl]-5-oxo-7-thioxo-6,8-diazaspiro[3.4]octan-8-yl]-2-fluoro-N-(2-methoxyethyl)benzamide] the “LNCaP-AR-wt AG MAX % Stim” value [1] was −0.1% and the “LNCaP-AR-F876L AG MAX % Stim” value [2] was 0.2%.
N#Cc1ncc(N2C(=O)C3(CCC3)N(c3ccc(OC4CCN(CCO)CC4)cc3)C2=S)cc1C(F)(F)F [Cpd 51, 5-[8-[4-[[1-(2-hydroxyethyl)-4-piperidyl]oxy]phenyl]-5-oxo-7-thioxo-6,8-diazaspiro[3.4]octan-6-yl]-3-(trifluoromethyl)pyridine-2-carbonitrile] was tested, and the “LNCaP-AR-wt AG MAX % Stim” value [1] was 0.8% and the “LNCaP-AR-F876L AG MAX % Stim” value [2] was 0.2%.
